Where two headings read alike, the source gives them in different places.
Key:
[1] = system: Sendai virus; test: Replication of Sendai virus in 37RC cells, virus yield by haemagglutinin titration; type: cell-based; conditions: Respirovirus muris, read-out: ID50/μM
Method: Monkey kidney 37RC cells were grown at 37° C. in RPMI medium supplemented with 5% foetal bovine serum (FBS), L-glutarine (2 mM) and antibiotics. Sendai virus was grown in the allantoic cavity of 10-day-old embryonated eggs. Viral titre was expressed in haemagglutinating units (HAU) per ml; haemagglutinin titration was done according to standard procedures, as described in C. Amici et al. (J. Virol. 68: 6890–6899, 1994). […] Confluent 37RC monolayers were infected with Sendai Virus (5 HAU/ml) for 1 h at 37° C. After 1 hour incubation, viral inoculum was removed and cells were treated with the test compounds at different concentrations. Virus yields were determined 24 h post infection by haemagglutinin titration. Mock-infected cells were treated identically and processed for cytotoxicity assay (Neutral Red assay) at the same time (see below). The results were expressed as HAU/ml (each point represents the mean of duplicate samples).

[2] = system: NF-κB; test: NF-κB-dependent luciferase reporter gene assay in HeLa κB-transformed cells stimulated with TPA; type: cell-based, human
Method: (§1) HeLa cell clone 13B, stably transfected with a luciferase reporter plasmid controlled by the human hsp70 promoter, and HeLa κB-transformed cells, stably transfected with a luciferase reporter plasmid controlled by a synthetic NF-κB-STM construct, were maintained in DMEM medium supplemented with 10% FBS, L-glutamine (2 mM) and G418 (250 μg/ml) at 37° C. in a 5% CO2 humidified atmosphere.
(§2) Cells were seeded at a density of 4×10^4 cells/well in 96-well plates. After 18–20 h, the medium was removed and cells were treated for 8 h with the test compounds (100 μl) at the appropriate dilutions in serum-free medium. For the NF-κB-dependent reporter gene assay, cells were stimulated with TPA (25 ng/ml) 2 h after exposure to the compounds.
(§3) After incubation, the medium was removed and cells were lysed in 10 μl of lysis buffer. The luciferase activity was determined by adding 100 μl of substrate and measuring the release of light using a Victor 1420 microplate reader (Wallac, Finland).
The fragment Kpn I-BamH I from the pGL3 basic vector containing the luciferase gene (PROMEGA) was inserted in the pcDNA3 vector (INVITROGEN) digested with Bgl II-KpnI. (This digestion removes the CMV-promoter from pcDNA3.) The resulting new vector was digested with Kpn I-Hind III and a promoter containing a ‘5×NF-κB binding sites-TATA box’ sequence was inserted upstream of the luciferase gene. This vector has been named STM.
To obtain stable HeLa cell lines expressing the luciferase gene under the control of NF-κB, HeLa cells were transfected (using lipofectamine plus GIBCO) with the STM-Pvu I linearized vector, and selected for 20 days with G418 (800 μg/ml). After selection, the resistant HeLa cell pool was controlled (in quadruplicate samples) for luciferase activity after stimulation with TNFα, IL-1 and TPA.
(§4) The AC200/μM for HSF is the concentration at which the tested compound doubled the HSF activity in this assay. The IC50/μM for NF-κB is the concentration at which the tested compound halved the NF-κB activity in this assay. […] The LC50/μM is the concentration at which the tested compound killed half the cells in each assay. […] (n.d. means not done)

[3] = system: HSF; test: HSF activation, luciferase reporter controlled by the human hsp70 promoter in HeLa cell clone 13B; type: cell-based; conditions: read-out: HSF AC200/μM
Method: as §1, §2, §3, §4

[4] = in vitro; type: cell-based; conditions: monkey, 50% lethal dose/concentration, neutral red assay, 37RC cells, read-out: LC50/μM
Method: Cell viability was determined using the Neutral Red assay.

[5] = system: Monkey kidney 37RC cells; type: cell-based; conditions: concentration 100% toxic to uninfected 37RC cells, visually by microscopy
[6] = in vitro
Method: (§5) This assay was carried out on HeLa cells using a technique analogous to that described below in Example 36(b) for Monkey Kidney 37RC cells.
as §4
(§6) Cell viability was determined using the Neutral Red assay. 37RC cells were seeded at density of 6×10^4 cells/well in 24-well plates and incubated for 24 h. Confluent 37RC monolayers were treated with the test compounds at different dilutions for 24 h at 37° C. After incubation, the medium was removed and the cells were incubated with RPMI medium containing 40 μg/ml Neutral Red dye (500 μl/well). After 2 h at 37° C., the monolayers were washed with phosphate-buffered saline (PBS) and then with a solution containing 1% CaCl2 and 0.5% formaldehyde. After washing, a solution containing 1% acetic acid/50% ethanol was added to the monolayers (250 μl/well). After 10 min at room temperature, the absorbance was determined with a microplate reader (Victor 1420, Wallac) at 540 nm.

[7] = system: HeLa cells; test: in vitro; type: cell-based; conditions: human, 8 h
Method: HeLa cells were plated in 96-well microtiter plates in 100 μl culture medium (4×10^4/well). After 20 hours, the cells were exposed to the test compounds at different dilutions and incubated for the next 8 h at 37° C. in a 5% CO2 humidified atmosphere. After 6 h incubation, the Alamar Blue was added in an amount equal to 10% of the culture volume (10 μl). Two hours after the addition of the Alamar Blue, the fluorescence was measured using a Victor 1420 microplate reader.

[8] = system: HeLa cells; test: in vitro; conditions: read-out: Toxicity Neutral Red LC50/μM; HeLa cells; concentration that killed half the cells
Method: as §5, §4, §6

[9] = Homo sapiens, concentration that halved NF-κB activity, HeLa reporter cells, TPA 25 ng/ml, 8 h treatment
[10] = Homo sapiens, concentration at which the compound doubled HSF activity, HeLa clone 13B, 8 h treatment
[11] = 50% inhibitory dose/concentration at 24 hours, Sendai virus in 37RC cells

| Compound | IC50 [2, 9] | EC (2-fold HSF activity) [3, 10] | TD100/μM [5] | CC50 [7] | IC50 [1, 11] | other results |
| --- | --- | --- | --- | --- | --- | --- |
| CC(C)(C)OC(=O)NC1C=CC(=O)/C1=C/c1ccccc1 (stereo not shown) [CTC-248, ((E)-5-Benzylidene-4-oxo-cyclopent-2-enyl)-carbamic acid tert-butyl ester] | 4 µM | 1.8 µM | 10 µM | > 800 µM | – | IC50 ([1]; 24 h): 0.6 µM; CC50 at 24 h [4]: 33 µM; CC50 at 24 h ([6]; human): 33 µM |
| CCCCC1C=CC(=O)/C1=C/CC(C)C (stereo not shown) [CTC-122] | 12 µM | 13 µM | 50 µM | 227 µM | 0.3 µM | – |
| O=C1C=CC(NC(=O)CCl)C1 (stereo not shown) [CTC-304, 2-Chloro-N-(4-oxo-cyclopent-2-enyl)-acetamide] | < 6.2 µM | < 6.2 µM | – | – | – | CC50 at 24 h ([6]; human): 79 µM |
| O=C1C=CC(Nc2ccccc2)C1 (stereo not shown) [CTC-252, 4-Phenylamino-cyclopent-2-one] | 57 µM | 27 µM | – | > 800 µM | – | – |
| CC(C)/C=C1/C(=O)C=C[C@H]1NC(=O)OC(C)(C)C [CTC-195, (2R)-(5-iso-Butylidene-4-oxocyclopent-2-enyl)-carbamic acid tert-butyl ester] | 6.6 µM | 5 µM | 10 µM | > 800 µM | 0.4 µM | CC50 at 24 h [4]: 4 µM |
| CC(C)/C=C1/C(=O)C=CC1C (stereo not shown) [CTC-154] | 14 µM | 13 µM | – | > 800 µM | – | – |
| CC(C)/C=C1/C(=O)C=C[C@@H]1NC(=O)OC(C)(C)C [CTC-199, (2S)-(5-iso-Butylidene-4-oxocyclopent-2-enyl)-carbamic acid tert-butyl ester] | 5 µM | 1.8 µM | 50 µM | > 800 µM | 1 µM | CC50 at 24 h [4]: 4 µM |
| O=C1C=CC(NC(=O)c2ccccc2)C1 (stereo not shown) [CTC-171, N-(4-Oxocyclopent-2-enyl)-benzamide] | 38 µM | 51 µM | 100 µM | > 800 µM | 20 µM | CC50 at 24 h [4]: 59 µM |
| CC1C=CC(=O)/C1=C/c1ccccc1 (stereo not shown) [CTC-150, 4-Methyl-5-[1-phenyl-meth-(E)-ylidene]-cyclopent-2-enone] | 7 µM | 3 µM | 50 µM | 314 µM | 0.9 µM | – |
| CC(C)(C)OC(=O)NC1C=CC(=O)C1 (stereo not shown) [CTC-132, (4-Oxocyclopent-2-enyl)-carbamic acid tert-butyl ester] | 52 µM | 51 µM | 100 µM | > 800 µM | 20 µM | – |
| CC(C)(C)OC(=O)N[C@@H](CS[C@@H]1CC(=O)/C(=C/c2ccccc2)[C@H]1NC(=O)OC(C)(C)C)C(=O)O [CTM-228, (2R)-3-((1R,2R)-(E)-3-Benzylidene-2-tert-butoxycarbonylamino-4-oxocyclopentylsulfanyl)-2-tert-butoxycarbonylaminopropionic acid] | < 6.2 µM | < 6.2 µM | – | – | – | CC50 at 24 h ([6]; human): 25 µM |
| CC(C)(C)OC(=O)NC1C=CC(=O)/C1=C/c1ccc(Cl)cc1 (stereo not shown) [CTC-247, [(E)-5-(4-Chloro-benzylidene)-4-oxo-cyclopent-2-enyl]-carbamic acid tert-butyl ester] | 9 µM | 2 µM | 10 µM | > 800 µM | 0.6 µM | CC50 at 24 h [4]: 3.4 µM; CC50 at 24 h ([6]; human): 72 µM |
| CCOC(=O)N(C(=O)OC(C)(C)C)C1C=CC(=O)C1 (stereo not shown) [CTC-267, N-tert-Butoxycarbonyl-(4-Oxocyclopent-2-enyl)-carbamic acid ethyl ester] | 35 µM | 18 µM | – | – | – | CC50 at 24 h ([6]; human): 233 µM |
| CCCCC1C=CC(=O)/C1=C/C(C)C (stereo not shown) [CTC-145] | 38 µM | 13 µM | 10 µM | 506 µM | 0.3 µM | – |
| CCCCC1C=CC(=O)/C1=C/C1CC1 (stereo not shown) [CTC-177] | 14 µM | 8 µM | – | 239 µM | – | – |
| [(1R,2S)-2-(Naphthalen-2-ylsulfanyl)-4-oxocyclopentyl]-carbamic acid methyl ester; compound with benzene [CTM-237] | – | – | – | – | – | IC50 [2]: 9 µM; EC (2-fold HSF activity) [3]: 28 µM; CC50 [8]: 183 µM |
| COC(=O)[C@H](CSC1CC(=O)/C(=C/C(C)C)C1C)NC(=O)OC(C)(C)C (stereo partly shown) [CTM-126] | 21 µM | 18 µM | – | > 800 µM | – | – |
| O=C1C=CC(NC(=O)Oc2ccccc2)C1 (stereo not shown) [CTC-260, (4-Oxocyclopent-2-enyl)-carbamic acid phenyl ester] | 9 µM | 10 µM | – | – | – | CC50 at 24 h [6]: 74 µM |
| CC(C)/C=C1/C(=O)C=CC1NC(=O)OC(C)(C)C (stereo not shown) [CTC-121, (5-iso-Butylidene-4-oxocyclopent-2-enyl)-carbamic acid tert-butyl ester] | 4.7 µM | 2.8 µM | 50 µM | > 800 µM | 1 µM | CC50 at 24 h [4]: 4 µM |
| Cc1cc(C)c(/C=C2/C(=O)C=C[C@@H]2NC(=O)OC(C)(C)C)c(C)c1 [CTC-285, (1S)-[4-Oxo-(E)-5-(2,4,6-trimethyl-benzylidene)-cyclopent-2-enyl]-carbamic acid tert-butyl ester] | 10 µM | < 6.2 µM | – | – | – | CC50 at 24 h ([6]; human): 25 µM |
| COC(=O)[C@H](CS[C@@H]1CC(=O)C[C@H]1NC(=O)Oc1ccccc1)NC(=O)OC(C)(C)C [CTM-236, (R)-2-tert-Butoxycarbonylamino-3-((1R,2R)-4-oxo-2-phenoxy-carbonyl-amino-cyclopentyl-sulfanyl)-propionic acid methyl ester] | – | – | – | – | – | IC50 ([2]; concentration that halved NF-κB activity, HeLa reporter cells, TPA 25 ng/ml, 8 h treatment): 10 µM; EC (2-fold HSF activity) ([3]; concentration at which the compound doubled HSF activity, HeLa clone 13B, 8 h treatment): 13 µM; CC50 [8]: 76 µM |
| CCCCCC/C=C1/C(=O)C=CC1C (stereo not shown) [CTC-162] | < 6.2 µM | < 6.2 µM | – | 234 µM | – | – |
| CCOC(=O)NC1C=CC(=O)C1 (stereo not shown) [CTC-271, (4-Oxocyclopent-2-enyl)-carbamic acid ethyl ester] | 39 µM | 49 µM | – | – | – | CC50 at 24 h ([6]; human): 104 µM |
| CCCCC/C=C1/C(=O)C=CC1C (stereo not shown) [CTC-164] | 40 µM | > 100 µM | – | > 800 µM | – | – |

Reference: patent publication US7183440B2, “Pharmaceutically useful compounds” (priority 2005, dated 2007)
